From US20040191843A1, “Cell-killing molecules and methods of use thereof” (Palo Alto Institute of Molecular Medicine, priority 2003, published 2004)

Test system: U9-TR
Experiment: DNA fragmentation in whole cells (release of 3H-labeled DNA fragments, 4 h)
Assay type: cell-based, human
Procedure: DNA fragmentation in whole cells or normal nuclei isolated from U937 or MCF-7 cells was assayed by release of (3H)thymidine-labeled DNA fragments as described in detail previously (Wright et al. (1994) J. Exp. Med. 180, 2113-2123). DNA fragmentation induced by rADF treatment of isolated nuclei for four h was analyzed by agarose electrophoresis as described in detail previously (Wright et al. (1994) supra). In four h assays using isolated nuclei, the buffer was supplemented with an ATP regenerating system (2 mM ATP, 10 mM phosphocreatine, and 50 μg/ml creatine kinase).
Another mechanism whereby cancer cells may resist apoptosis is through overexpression of heat shock (HS) proteins which have been found at high levels in most tumor cell biopsies (Jaattela, et al., 1999, Exp Cell Res 248:30-43). […] We have studied the mechanisms of apoptosis resistance using several variants derived from the U937 cell line. Variants generated by prolonged growth in the presence of TNF (U9-TR) or by nutritional depletion of intracellular NAD content (U9-NAD-) have been described in the literature previously (Wright, et al., 1992, Cancer Immunol Immunother 34:399-406; Wright, et al., 1996b, J. Exp. Med. 183: 463-477). Both of these variants were resistant to apoptosis induced by diverse agents, such as chemotherapeutic drugs, UV light, and TNF.

Compound: COc1cc([C@@H]2c3cc4c(cc3[C@@H](O[C@@H]3O[C@@H]5CO[C@@H](C)O[C@H]5[C@H](O)[C@H]3O)[C@H]3COC(=O)[C@H]23)OCO4)cc(OC)c1O [Etoposide, etoposide]
- fold increase of IC50 values in resistant variants: > 41 fold
